Results on six compounds are retold here after PMC11823594, “Durlobactam in combination with β-lactams to combat Mycobacterium abscessus” (Antimicrobial Agents and Chemotherapy, 2024).

One data set deals with LDT1 (Mycobacterium abscessus, UniProt B1MDC1). In words: Mass spectrometry of covalent adduct formation. The following applies: protein:drug 1:20, 2 h; mass accuracy ±5 Da; (−) = no change. It counts as binding. As for the experimental part:
(§1) Truncated sequences of LDT1-5, DDC, PBP B, and PBP-lipo (Δ1–41) were generated by Celtek Biosciences and cloned into the pET28(a) + vector with a tobacco etch virus (TEV) protease cleavage site before the start codon. Clones were transformed into Escherichia coli BL21 (DE3) and grown to an OD600 of 0.6–0.8. […] Cell pellets were collected and stored at −20°C overnight, then resuspended in a buffer containing 50 mM Tris (pH 8.0), 400 mM sodium chloride, and 1 mM Tris (2-carboxyethyl) phosphine hydrochloride (TCEP), followed by sonication and centrifugation. The supernatant was purified using a His Prep FF 16/10 column (GE Healthcare) and eluted with 500 mM imidazole. Eluted protein was dialyzed overnight at 4°C in a buffer with 50 mM Tris (pH 8.0), 150 mM sodium chloride, and 0.5 mM TCEP in the presence of His-tagged TEV protease. To remove the His tag, the mixture was passed over the His Prep FF 16/10 column again.
(§2) The purified proteins listed above were incubated at room temperature with β-lactams or BLIs at a molar ratio of 1:20 for 2 h. The reactions were then quenched with acetonitrile and diluted to 1 mL with 0.1% formic acid in water. Samples were analyzed using a quadrupole time-of-flight (Q-TOF) Waters Synapt-G2-Si electrospray ionization mass spectrometer (ESI-MS) and a Waters Acquity H class ultra-performance liquid chromatography (UPLC) system, equipped with a BEH C18 1.7 µm column (2.1 × 50 mm). The MS was tuned with the following settings: capillary voltage set at 3 kV, sampling cone at 35 V, source offset at 35, source temperature of 100°C, desolvation temperature of 500°C, cone gas flow rate at 100 L/h, desolvation gas flow rate at 800 L/h, and nebulizer set at 6.0. The mobile phases consisted of 0.1% formic acid in water and 0.1% formic acid in 100% acetonitrile, with gradient elution from 10% to 90% of […] over 11 min. The system’s mass accuracy was ±5 Da.

A further data set concerns the target LDT5 (Mycobacterium abscessus, UniProt B1MM58). In words: Mass spectrometry of covalent adduct formation. It counts as binding. The conditions noted are these: protein:drug 1:20, 2 h; mass accuracy ±5 Da; (−) = no change. As for the experimental part:
as §1, §2

A further data set deals with Mab ATCC 19977. In words: Static drug-concentration time-kill (SCTK) assay with CART analysis. It counts as cell-based, Mycobacterium abscessus. The conditions noted are these: clinically achievable concentrations, over 10 days; AVI 4 mg/L; DUR 12 mg/L + SUL 7 mg/L.
The target in the next data set is PBP B (Mycobacterium abscessus, UniProt B1MP31). In words: Differential scanning fluorimetry thermal shift assay. It counts as binding. The conditions noted are these: 2 h; read-out: ΔTm PBPB (Tm = 31.6°C). As for the experimental part: (§3) Each purified protein (2–4 µM) was incubated with or without β-lactams or BLIs at a molar ratio of 1:50 at room temperature for 2 h. Following incubation, SYPRO Orange dye (10× concentration; Fisher Scientific) was added. The samples were then brought to a final volume of 30 µL with PBS buffer and subjected to thermal cycling in a qPCR machine (Bio-Rad), with the temperature increasing from 25°C to 95°C at a rate of 1°C/min. Fluorescence changes were monitored with an excitation wavelength of 492 nm. The experiments were conducted at least in duplicate, and the melting temperature (Tm) was determined for each sample. The Tm values were then compared to those of the protein in the absence of β-lactams or BLIs to ascertain the change in melting temperature (ΔTm).
Sequence of PBP B (B1MP31 entry or part of it): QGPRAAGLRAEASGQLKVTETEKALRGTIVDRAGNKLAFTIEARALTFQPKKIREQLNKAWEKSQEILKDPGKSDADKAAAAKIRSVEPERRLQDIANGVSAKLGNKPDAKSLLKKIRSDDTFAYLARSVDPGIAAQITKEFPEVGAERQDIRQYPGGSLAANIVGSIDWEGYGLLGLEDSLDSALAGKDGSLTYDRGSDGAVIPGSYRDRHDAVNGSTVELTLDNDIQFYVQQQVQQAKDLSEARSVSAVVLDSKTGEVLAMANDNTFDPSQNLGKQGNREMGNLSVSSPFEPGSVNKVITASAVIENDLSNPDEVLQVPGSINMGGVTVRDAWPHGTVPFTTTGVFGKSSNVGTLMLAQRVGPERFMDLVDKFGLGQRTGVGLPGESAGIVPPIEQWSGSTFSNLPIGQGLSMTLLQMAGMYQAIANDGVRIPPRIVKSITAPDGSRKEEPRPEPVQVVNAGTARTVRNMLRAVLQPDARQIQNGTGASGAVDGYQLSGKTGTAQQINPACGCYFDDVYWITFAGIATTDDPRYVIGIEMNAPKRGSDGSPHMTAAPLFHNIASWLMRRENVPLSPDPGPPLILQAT

In data set [1] the target is T1, DDC (Mycobacteroides abscessus, UniProt B1MDJ1). Described as above. In kind it is binding. The following applies: 2 h; read-out: ΔTm DDC (Tm = 35.5°C). Here is the method:
as §3

In data set [2] the target is T1, DDC. In words: Mass spectrometry of covalent adduct formation. In kind it is binding. The following applies: protein:drug 1:20, 2 h; mass accuracy ±5 Da; (−) = no change. Here is the method: as §1, §2
Another data set deals with LDT4 (Mycobacterium abscessus, UniProt B1MKW1). In words: Mass spectrometry of covalent adduct formation. In kind it is binding. The following applies: protein:drug 1:20, 2 h; mass accuracy ±5 Da; (−) = no change. As for the experimental part: Truncated sequences of LDT1-5, DDC, PBP B, and PBP-lipo (Δ1–41) were generated by Celtek Biosciences and cloned into the pET28(a) + vector with a tobacco etch virus (TEV) protease cleavage site before the start codon. Clones were transformed into Escherichia coli BL21 (DE3) and grown to an OD600 of 0.6–0.8. Protein expression was induced with 0.25 mM isopropyl β-d-1-thiogalactopyranoside (IPTG) and incubated for 18 h at 18°C. Cell pellets were collected and stored at −20°C overnight, then resuspended in a buffer containing 50 mM Tris (pH 8.0), 400 mM sodium chloride, and 1 mM Tris (2-carboxyethyl) phosphine hydrochloride (TCEP), followed by sonication and centrifugation. The supernatant was purified using a His Prep FF 16/10 column (GE Healthcare) and eluted with 500 mM imidazole. Eluted protein was dialyzed overnight at 4°C in a buffer with 50 mM Tris (pH 8.0), 150 mM sodium chloride, and 0.5 mM TCEP in the presence of His-tagged TEV protease. To remove the His tag, the mixture was passed over the His Prep FF 16/10 column again.
Sequence of LDT4 (B1MKW1 entry or part of it): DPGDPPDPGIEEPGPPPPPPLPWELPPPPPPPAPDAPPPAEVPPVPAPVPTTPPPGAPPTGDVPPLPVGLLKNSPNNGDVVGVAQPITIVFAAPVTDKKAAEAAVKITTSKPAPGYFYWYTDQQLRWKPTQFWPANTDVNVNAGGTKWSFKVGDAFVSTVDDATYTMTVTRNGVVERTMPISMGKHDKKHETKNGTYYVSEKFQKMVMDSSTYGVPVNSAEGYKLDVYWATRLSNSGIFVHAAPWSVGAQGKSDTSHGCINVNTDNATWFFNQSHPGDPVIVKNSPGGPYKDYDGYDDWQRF
as §2

The target of a further data set is LDT3 (Mycobacterium abscessus, UniProt B1MHQ4). In words: Steady-state kinetics with nitrocefin (Ki,app). In kind it is biochemical. The conditions noted are these: in parentheses in Table 3. Put shortly: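 Purified enzyme at fixed concentration with nitrocefin at 5 × Km, varied β-lactam/BLI concentrations; A482 followed over 0–30 min. Ki,app taken from Dixon plots (1/ΔA vs inhibitor) and corrected for substrate: observed Ki,app/(1+[NCF]/Km NCF).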
Sequence of LDT3 (B1MHQ4 entry or part of it): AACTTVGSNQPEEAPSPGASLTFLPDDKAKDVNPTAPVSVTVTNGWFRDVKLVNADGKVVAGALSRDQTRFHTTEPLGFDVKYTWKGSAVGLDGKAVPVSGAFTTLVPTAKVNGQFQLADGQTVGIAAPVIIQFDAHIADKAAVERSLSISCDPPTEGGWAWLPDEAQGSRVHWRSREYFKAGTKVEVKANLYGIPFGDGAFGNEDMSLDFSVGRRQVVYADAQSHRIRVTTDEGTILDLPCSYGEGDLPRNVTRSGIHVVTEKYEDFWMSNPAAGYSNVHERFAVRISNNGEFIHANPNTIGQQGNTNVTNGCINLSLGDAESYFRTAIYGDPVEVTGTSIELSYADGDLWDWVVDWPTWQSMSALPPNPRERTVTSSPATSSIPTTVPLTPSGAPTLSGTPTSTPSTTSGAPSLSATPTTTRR

For data set [3] the following is noted: human, in vivo; cited from earlier work.

Entries after “also recorded” stand apart in the source; their conditions may differ.

Sequence of LDT5 (B1MM58 entry or part of it): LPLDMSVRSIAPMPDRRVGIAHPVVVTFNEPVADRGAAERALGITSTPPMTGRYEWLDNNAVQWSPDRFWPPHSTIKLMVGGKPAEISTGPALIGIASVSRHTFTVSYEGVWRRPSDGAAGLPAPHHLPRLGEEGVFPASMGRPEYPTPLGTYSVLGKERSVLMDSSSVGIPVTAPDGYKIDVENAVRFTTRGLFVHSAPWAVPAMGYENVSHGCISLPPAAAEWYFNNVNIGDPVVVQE
T1 sequence (B1MDJ1 entry or part of it): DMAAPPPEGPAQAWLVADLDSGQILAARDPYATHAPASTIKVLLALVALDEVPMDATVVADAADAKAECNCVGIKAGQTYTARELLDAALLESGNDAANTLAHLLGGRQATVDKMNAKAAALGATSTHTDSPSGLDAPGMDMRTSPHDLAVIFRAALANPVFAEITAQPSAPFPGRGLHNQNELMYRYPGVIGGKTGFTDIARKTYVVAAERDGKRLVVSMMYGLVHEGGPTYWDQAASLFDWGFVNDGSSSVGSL
Sequence of LDT1 (B1MDC1 entry or part of it): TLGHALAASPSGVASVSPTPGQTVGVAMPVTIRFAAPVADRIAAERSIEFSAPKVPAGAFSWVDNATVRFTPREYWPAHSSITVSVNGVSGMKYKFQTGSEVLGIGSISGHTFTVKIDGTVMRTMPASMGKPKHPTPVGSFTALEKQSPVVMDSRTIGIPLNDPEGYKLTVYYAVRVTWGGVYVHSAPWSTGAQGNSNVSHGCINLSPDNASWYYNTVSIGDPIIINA

With `CC1(C)S[C@@H]2[C@H](NC(=O)[C@H](N)c3ccc(O)cc3)C(=O)N2[C@H]1C(=O)O` [Amoxicillin, amoxicillin], the “Observed MW (+ change in mw), LDT1 (23,059)” value on LDT1 is 28,220 (−) Da. On LDT5, the “Observed MW (+ change in mw), LDT5 (28,220)” value is 28,220 (−) Da. Besides, in the data set with Mab ATCC 19977, the “Bacterial killing (log10 reduction) in time-kill” value is “no killing effect”.
One may read the ΔTm as the shift of the melting midpoint relative to a reference. Consider `NC(=O)[C@@H]1CC[C@@H]2CN1C(=O)N2OS(=O)(=O)O` [Avibactam, avibactam], for which the “Observed MW (+ change in mw), LDT1 (23,059)” value on LDT1 is 23,325 (+265) Da. Besides, at LDT5, the “Observed MW (+ change in mw), LDT5 (28,220)” value is on record as 28,220 (−) Da. Also, the ΔTm at PBP B is -0.2 °C; on DDC [1], 4.2 °C. In addition, the “Bacterial killing (log10 reduction) in time-kill” value in the data set on Mab ATCC 19977 is “no effect on bacterial growth inhibition or killing; also recorded: no effect”.
With `C[C@@H](O)[C@H]1C(=O)N2C(C(=O)O)=C(SC3CN(C4=NCCS4)C3)[C@H](C)[C@H]12` [Tebipenem, tebipenem], the “Observed MW (+ change in mw), LDT1 (23,059)” value at LDT1 is given as 23,443 (+384) Da. Further, the “Observed MW (+ change in mw), LDT5 (28,220)” value on LDT5 is listed as 28,220 (−) Da. At DDC [2], the “Observed MW (+ change in mw), DDC (26,788)” value is 27,173 (+385) Da. The “Observed MW (+ change in mw), LDT4 (32,567)” value on LDT4 was 32,951 (+384) Da.
On to `CC1=C[C@@H]2CN(C(=O)N2OS(=O)(=O)O)[C@@H]1C(N)=O` [Durlobactam, durlobactam], for which the “Observed MW (+ change in mw), LDT1 (23,059)” value at LDT1 is 23,336 (+277) Da. Also, on LDT5, the “Observed MW (+ change in mw), LDT5 (28,220)” value is 28,496 (+276) Da. The “Observed MW (+ change in mw), DDC (26,788)” value at DDC [2] is given as 27,066 (+276) Da. Moreover, the figures for the ΔTm on PBP B and on DDC [1] were -0.4 °C and 0.4 °C, respectively. The “Bacterial killing (log10 reduction) in time-kill” value in the data set with Mab ATCC 19977 is reported as ~ 2 log10 CFU/mL. In addition, the “Observed MW (+ change in mw), LDT4 (32,567)” value at LDT4 is 32,841 (+276) Da.
For the compound `C[C@@H](O)[C@H]1C(=O)N2C(C(=O)O)=C(S[C@H]3CC[S@@+]([O-])C3)S[C@H]12` [Sulopenem, sulopenem], the “Ratio of fCss,avg to Ki,app, LDT3” value at LDT3 was determined as 0.4. Also, the “Observed MW (+ change in mw), LDT5 (28,220)” value on LDT5 is 28,306 (+86) Da. The “Observed MW (+ change in mw), DDC (26,788)” value at DDC [2] was 27,138 (+349) Da. The ΔTm on PBP B was 1 °C; at DDC [1], 10.4 °C. The “Observed MW (+ change in mw), LDT4 (32,567)” value at LDT4 is 32,652 (+86) Da.
Turning to `CO/N=C(\C(=O)N[C@@H]1C(=O)N2C(C(=O)O)=C(COC(N)=O)CS[C@H]12)c1ccco1` [Cefuroxime, cefuroxime], the “Observed MW (+ change in mw), LDT1 (23,059)” value at LDT1 is listed as 23,059 (−) Da. The “Total clearance after IV dosing” value in [3] was 9.0 to 16 L/h. Further, the “Observed MW (+ change in mw), LDT4 (32,567)” value at LDT4 was 32,567 (−) Da.
